Experimental data: patent US20140121373A1, “PROCESS FOR PREPARING STABLE POLYMORPHIC FORM OF ERLOTINIB HYDROCHLORIDE” (CADILA HEALTHCARE LIMITED, priority 2011, published 2014)

Test: Polymorphic stability study of the stable form of Erlotinib hydrochloride (PXRD, DSC, IR on storage)
Assay type: physicochemical
Settings: for DSC / IR / PXRD: should comply with data of stable polymorphic form
Method: (Refrigerator), 25° C.±2° C./60%±5% RH, 30° C.±2° C./65%±5% RH (Real Time) and 40° C.±2° C./75%±5% RH of the stable form of Erlotinib Hydrochloride.
• Powder X-ray Diffraction: X-ray powder diffraction spectrum was observed on a MF 2100 2 KW X-ray Powder diffractometer of make Rigaku having a Copper Kα-radiation at a voltage of 40 kV and 30 mA. Approximately 150 mg sample was gently flattened on a quartz plate without further processing (e.g. Grinding and sieving) and scanned from 4° to 40° at 0.010° sampling width and 4.000° per minute. • IR Spectroscopy: The IR spectra was performed on 8400S of make Shimadzu by using KBr pellet and recorded from 4000 to 400 cm^−1. About 2 mg of sample was triturated with 300 mg of finely powdered and dried potassium bromide. The mixture was carefully grinded, spread uniformly in a suitable die and submitted it in vacuum to a pressure of about 800 MPa […]. From the FTIR spectrum a blank FT-IR spectrum of KBr was subtracted. The blank IR spectrum was recorded prior to the measurement of the samples.
Differential Scanning Calorimetry (DSC): Melting points are determined by means of a DSC thermogram using a Pyris-1 make Perkin Elmer. DSC (Differential Scanning Calorimetry) is the technique of dynamic differential Calorimetry. Using this technique, the melting temperature can be measured by heating the sample until a thermal, i.e. an endothermic or exothermic, reaction is detected by means of ultrasensitive sensors. The DSC cell/sample chamber was purged with 100 ml/min of ultra-high purity nitrogen. The instrument was calibrated with high purity Indium. The sample was placed into an open aluminum DSC pan and measured against an empty reference pan. About 2 mg of sample being placed into the bottom of the pan and lightly tapped down to ensure good contact with the pan. The instrument was programmed to heat at a heating rate of 10° C./min in the temperature range between 50° C. and 300° C. • Microscope: A Lieca Microscope with Linkam Hot stage microscopy (TMS-94) system with polarized light, CCD camera and Linksys 32 data software. • HPLC: High Performance Liquid Chromatography Separation Module with PDA detector, Make Waters, Model No 2695. • KF: Moisture content was analyzed by using Karl Fisher Autotitrator 795 KFT Titrino make Metrohm.

[1] = 5° C. ± 3° C. (Refrigerator), Month 1
[2] = 5° C. ± 3° C. (Refrigerator), Month 2
[3] = 5° C. ± 3° C. (Refrigerator), Month 3
[4] = 5° C. ± 3° C. (Refrigerator), Month 6
[5] = 25° C. ± 2° C./60% ±5% RH, Month 1
[6] = 25° C. ± 2° C./60% ±5% RH, Month 2
[7] = 25° C. ± 2° C./60% ±5% RH, Month 3
[8] = 25° C. ± 2° C./60% ±5% RH, Month 6
[9] = 30° C. ± 2° C./65% ±5% RH (Real Time), Month 1
[10] = 30° C. ± 2° C./65% ±5% RH (Real Time), Month 2
[11] = 30° C. ± 2° C./65% ±5% RH (Real Time), Month 3
[12] = 30° C. ± 2° C./65% ±5% RH (Real Time), Month 6
[13] = 40° C. ± 2° C./75% ±5% RH, Month 1
[14] = 40° C. ± 2° C./75% ±5% RH, Month 2
[15] = 40° C. ± 2° C./75% ±5% RH, Month 3
[16] = 40° C. ± 2° C./75% ±5% RH, Month 6

Question: Which results are given for `C#Cc1cccc(Nc2ncnc3cc(OCCOC)c(OCCOC)cc23)c1.Cl` [Erlotinib hydrochloride, 4-(3-Ethynylphenylamino)-6,7-bis(2-methoxyethoxy)-quinazoline]?
Answer: DSC [1]: Complies; IR [1]: Complies; PXRD [1]: Complies; DSC [2]: Complies; IR [2]: Complies; PXRD [2]: Complies; DSC [3]: Complies; IR [3]: Complies; PXRD [3]: Complies; DSC [4]: Complies; IR [4]: Complies; PXRD [4]: Complies; DSC [5]: Complies; IR [5]: Complies; PXRD [5]: Complies; DSC [6]: Complies; IR [6]: Complies; PXRD [6]: Complies; DSC [7]: Complies; IR [7]: Complies; PXRD [7]: Complies; DSC [8]: Complies; IR [8]: Complies; PXRD [8]: Complies; DSC [9]: Complies; IR [9]: Complies; PXRD [9]: Complies; DSC [10]: Complies; IR [10]: Complies; PXRD [10]: Complies; DSC [11]: Complies; IR [11]: Complies; PXRD [11]: Complies; DSC [12]: Complies; IR [12]: Complies; PXRD [12]: Complies; DSC [13]: Complies; IR [13]: Complies; PXRD [13]: Complies; DSC [14]: Complies; IR [14]: Complies; PXRD [14]: Complies; DSC [15]: Complies; IR [15]: Complies; PXRD [15]: Complies; DSC [16]: Complies; IR [16]: Complies; PXRD [16]: Complies; retention of polymorphic and chemical identity on storage (both stability studies, all storage conditions): retained the same polymorphic and chemical identity at least up to six months
